Measured values as given in ChEMBL document CHEMBL2074047, “Functional characterization of mouse cation transporter mOCT2 compared with mOCT1” (Biochem Biophys Res Commun, 2002).

T1: Solute carrier family 22 member 1 (Mus musculus, UniProt O08966)
T1 sequence (O08966 whole entry): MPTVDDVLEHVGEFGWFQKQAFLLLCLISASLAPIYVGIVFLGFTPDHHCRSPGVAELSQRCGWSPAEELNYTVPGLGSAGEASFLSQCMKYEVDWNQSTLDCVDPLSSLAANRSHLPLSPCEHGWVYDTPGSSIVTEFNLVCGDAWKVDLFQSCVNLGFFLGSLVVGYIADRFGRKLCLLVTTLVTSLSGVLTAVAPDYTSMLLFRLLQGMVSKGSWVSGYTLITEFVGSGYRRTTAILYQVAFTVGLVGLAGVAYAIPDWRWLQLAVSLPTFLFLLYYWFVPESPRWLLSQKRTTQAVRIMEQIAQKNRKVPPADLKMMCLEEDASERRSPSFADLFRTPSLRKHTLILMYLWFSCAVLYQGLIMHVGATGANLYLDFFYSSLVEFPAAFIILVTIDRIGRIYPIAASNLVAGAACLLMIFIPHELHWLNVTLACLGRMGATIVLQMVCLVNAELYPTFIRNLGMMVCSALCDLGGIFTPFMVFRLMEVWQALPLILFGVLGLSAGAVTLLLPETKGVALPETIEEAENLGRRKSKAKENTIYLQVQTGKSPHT

T2: Solute carrier family 22 member 2 (Mus musculus, UniProt O70577)
T2 sequence (O70577 whole entry): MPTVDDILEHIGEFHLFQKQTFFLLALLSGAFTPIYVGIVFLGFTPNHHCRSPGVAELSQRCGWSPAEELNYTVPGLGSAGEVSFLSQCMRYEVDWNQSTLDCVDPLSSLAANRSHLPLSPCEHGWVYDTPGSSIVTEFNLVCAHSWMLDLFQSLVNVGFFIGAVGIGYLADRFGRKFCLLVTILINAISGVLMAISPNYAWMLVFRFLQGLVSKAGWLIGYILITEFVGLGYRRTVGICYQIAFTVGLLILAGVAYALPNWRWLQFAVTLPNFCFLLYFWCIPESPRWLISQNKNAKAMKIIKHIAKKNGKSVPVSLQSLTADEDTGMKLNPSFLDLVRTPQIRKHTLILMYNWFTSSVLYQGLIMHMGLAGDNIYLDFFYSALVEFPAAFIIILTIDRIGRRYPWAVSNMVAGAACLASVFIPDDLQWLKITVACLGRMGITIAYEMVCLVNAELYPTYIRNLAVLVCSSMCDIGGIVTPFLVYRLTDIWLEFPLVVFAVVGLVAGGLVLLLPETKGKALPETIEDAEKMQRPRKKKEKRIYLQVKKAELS


Legend:
[1] = target: T1, Solute carrier family 22 member 1; assay: (§1) TP_TRANSPORTER: inhibition of MPP+ uptake (MPP+: 1 uM) in Xenopus laevis oocytes; assay type: functional, cell-based, Oocyte
[2] = target: T2, Solute carrier family 22 member 2; assay: as §1; assay type: functional, cell-based, Oocyte
[3] = substrate: C[n+]1ccc(-c2ccccc2)cc1; assay: TP_TRANSPORTER: uptake in Xenopus laevis oocytes; assay type: functional, cell-based, Oocyte
[4] = substrate: CC[N+](CC)(CC)CC; assay: cells, lysate or membranes named

Row | Molecule | IC50 [1] [µM] | IC50 [2] [µM] | Km [3] [µM] | Km [4] [µM]
1 | C[N+](C)(C)CCO [CHOLINE] | 55 | 217 |  | 
2 | CN/C(=N/CCSCc1nc[nH]c1C)NC#N [CIMETIDINE] | 0.59 | 8 |  | 
3 | CNC(=O)c1cccnc1 [NICOTINYL METHYLAMIDE] | 7340 | 13700 |  | 
4 | CCN(CC)CCNC(=O)c1ccc(N)cc1 [PROCAINAMIDE] | 3.9 | 312 |  | 
5 | C=C[C@H]1C[N@@]2CC[C@H]1C[C@H]2[C@H](O)c1ccnc2ccc(OC)cc12 [QUININE] |  | 2.8 |  | 
6 | CC[N+](CC)(CC)CC [TETRYLAMMONIUM] | 0.54 | 3.5 |  | 
7 | Solute carrier family 22 member 1 (Mus musculus) (protein) MPTVDDVLEHVGEFGWFQKQAFLLLCLISASLAPIYVGIVFLGFTPDHHCRSPGVAELSQRCGWSPAEELNYTVPGLGSAGEASFLSQCMKYEVDWNQSTLDCVDPLSSLAANRSHLPLSPCEHGWVYDTPGSSIVTEFNLVCGDAWKVDLFQSCVNLGFFLGSLVVGYIADRFGRKLCLLVTTLVTSLSGVLTAVAPDYTSMLLFRLLQGMVSKGSWVSGYTLITEFVGSGYRRTTAILYQVAFTVGLVGLAGVAYAIPDWRWLQLAVSLPTFLFLLYYWFVPESPRWLLSQKRTTQAVRIMEQIAQKNRKVPPADLKMMCLEEDASERRSPSFADLFRTPSLRKHTLILMYLWFSCAVLYQGLIMHVGATGANLYLDFFYSSLVEFPAAFIILVTIDRIGRIYPIAASNLVAGAACLLMIFIPHELHWLNVTLACLGRMGATIVLQMVCLVNAELYPTFIRNLGMMVCSALCDLGGIFTPFMVFRLMEVWQALPLILFGVLGLSAGAVTLLLPETKGVALPETIEEAENLGRRKSKAKENTIYLQVQTGKSPHT |  |  | 10 | 
8 | Solute carrier family 22 member 2 (Mus musculus) (protein) MPTVDDILEHIGEFHLFQKQTFFLLALLSGAFTPIYVGIVFLGFTPNHHCRSPGVAELSQRCGWSPAEELNYTVPGLGSAGEVSFLSQCMRYEVDWNQSTLDCVDPLSSLAANRSHLPLSPCEHGWVYDTPGSSIVTEFNLVCAHSWMLDLFQSLVNVGFFIGAVGIGYLADRFGRKFCLLVTILINAISGVLMAISPNYAWMLVFRFLQGLVSKAGWLIGYILITEFVGLGYRRTVGICYQIAFTVGLLILAGVAYALPNWRWLQFAVTLPNFCFLLYFWCIPESPRWLISQNKNAKAMKIIKHIAKKNGKSVPVSLQSLTADEDTGMKLNPSFLDLVRTPQIRKHTLILMYNWFTSSVLYQGLIMHMGLAGDNIYLDFFYSALVEFPAAFIIILTIDRIGRRYPWAVSNMVAGAACLASVFIPDDLQWLKITVACLGRMGITIAYEMVCLVNAELYPTYIRNLAVLVCSSMCDIGGIVTPFLVYRLTDIWLEFPLVVFAVVGLVAGGLVLLLPETKGKALPETIEDAEKMQRPRKKKEKRIYLQVKKAELS |  |  | 24 | 35.7
